Data as given in the METLIN SMRT retention time set (Domingo-Almenara et al. 2019).

Assay: gradient 5% acetonitrile 3 min, to 50% in 2 min, to 85% in 15 min, held 3 min, 100 µL/min
Conditions: column: Zorbax Extend-C18 2.1 x 50 mm; eluents: water / acetonitrile, 0.1% formic acid
Method in brief: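 In both positive and negative ionization mode, a quadrupole time-of-flight mass spectrometer coupled to HPLC analyzed pure standards run in mixtures of ~100 molecules. The Zorbax Extend-C18 column (2.1 × 50 mm, 1.8 μm) was operated at 100 μL/min with water and acetonitrile, each containing 0.1% formic acid. The dead volume was 40 μL and the dwell volume 900 μL. Retention time came from adduct peaks that were computationally picked and individually inspected by hand.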

SMILES | RP-LC retention time [s]
NC(=O)C1CCN(C(=O)C2CCN(S(=O)(=O)Cc3ccc(Cl)cc3)CC2)CC1 | 678
CCn1cc(S(=O)(=O)N2CCC(c3noc(COCCOC)n3)CC2)cn1 | 704
Cc1cc(C)cc(C(=O)N2CCCC(C(=O)NC3CCCCCC3)C2)c1 (stereo not given) | 955
O=c1ccc(-c2ccccc2)nn1CCc1nc(-c2ccc(Br)cc2)no1 | 1060
CCNC(=O)c1ccc2nnc(C3CC3)n2c1 | 590
COc1ccc(NC(=O)N2CCN(c3ccc(=O)n(-c4ccc(C)c(C)c4)n3)CC2)cc1OC | 764
CC(C)Cc1noc(C2(F)CCN(S(=O)(=O)c3ccccc3)CC2)n1 | 691
CC(C)C(=O)NCc1csc(C2CCCN(C(=O)CC(C)(C)C)C2)n1 (stereo not given) | 734
Cc1ccc(C(=O)Nc2ccc3c(c2)CCC(=O)N3C)s1 | 712
O=C1COc2ccc(-c3csc(NC(=O)c4ccc(F)cc4)n3)cc2N1 | 838
CC(C)CNC(=O)c1ccc2c(c1)Sc1ncccc1C(=O)N2C(C)C | 805
Cn1cnc(S(=O)(=O)N2CC(N(Cc3ccccc3)C3CCOCC3)C2)c1 | 600
O=C(NCCCN1CCCCC1)c1ccc2c(c1)nc1n2CCN(C2CCCCC2)C1=O | 621
Cc1ccc(S(=O)(=O)N2CCC(c3cc(N)on3)CC2)cc1 | 789
Cc1ccc(-c2noc(CN3C(=O)COc4cc(C)ccc43)n2)cc1 | 1130
Cc1ccc(F)cc1NC(=O)c1cc(C(C)C)n2nccc2n1 | 1230
CCOc1ccc(CC(=O)N2CCN(c3c(C)n(C)c(=O)n(C)c3=O)CC2)cc1OCC | 742
Cc1noc(C2(NC(=O)C3COc4ccccc4O3)CCCCC2)n1 (stereo not given) | 920
C=CCNC(=O)c1cnn(-c2cc(-c3nc(CC)no3)ccn2)c1C | 845
Cc1ccc(NC(=O)N2CC(c3nc(CCOCC4CC4)no3)C2)cc1C | 863
CCOCCCNC(=O)C(C)n1nc(C)c2c(C)n(-c3ccccc3)nc2c1=O (stereo not given) | 721

SMILES | RP-LC retention time [s]
Cc1ccc(S(=O)(=O)c2cnc(N3CCN(C4CCCCC4)CC3)nc2N)cc1C | 718
CCCNC(=O)N1CCCC(CCc2nnc(-c3cnccn3)o2)C1 (stereo not given) | 647
COCCc1nnc(NC(=O)c2cn(C)nc2OC)o1 | 558
COc1ccc(CCNc2nc(-c3ccc(OC)c(OC)c3)cs2)cc1OC | 728
CC(=O)c1cccc(S(=O)(=O)NC(C)Cc2ccco2)c1 (stereo not given) | 770
COc1ccc(S(=O)(=O)N2CCC(Cc3nncn3C)CC2)cc1 | 657
CCCN1C(=O)C2CCC(=O)N2c2ccc(C(=O)N3CCN(CC)CC3)cc21 (stereo not given) | 561
CCC(CO)NCc1ccc(-c2cccc(Cl)c2)o1 (stereo not given) | 658
CCCC(=O)Nc1nc(-c2ccc(OC)cc2)c(C)s1 | 956
Cc1noc(C)c1CC(=O)N1CC[C@@H]2CN(S(C)(=O)=O)[C@@H]2C1 | 608
COc1ccc(CCNc2ncc(C(=O)O)c(C(C)C)n2)cc1OC | 820
CCCNC(=O)c1ccc(S(N)(=O)=O)cc1 | 653
Cc1cc(C)cc(-n2ccn(Cc3nc(-c4ccc(C)cc4C)no3)c(=O)c2=O)c1 | 1020
CCC(=O)Nc1ccc2c(c1)N(C(=O)c1cccs1)CCC2 | 717
CCc1cc(-c2csc(S(=O)(=O)Nc3ccc(C)c(C)c3)c2)on1 | 1050
CCOc1ccc(NC(=O)CCSc2nnc(C)s2)cc1 | 709
Cc1nccn1CC(=O)N1CCCC(OCc2nc(C3CC3)no2)C1 (stereo not given) | 577
Cc1[nH]nc(-c2c(C)sc(C)c2S(=O)(=O)N2CCc3ccccc3C2)c1C | 975
C=CCc1ccc(OCC(O)CN2C(C)CCCC2C)c(OC)c1 (stereo not given) | 603
CC(C)Cn1c(-c2cccc(C(=O)NC(C)C)c2)nc2cccnc21 | 763

Further lines, results first:

RP-LC retention time [s] | SMILES
920 | O=C(c1c(F)cccc1Cl)N1CCCC(c2nnc(-c3ccccc3F)s2)C1 (stereo not given)
901 | CCOC(=O)c1cccc(N2C=C(C(=O)N3CCCC3)S(=O)(=O)c3ccc(Cl)cc32)c1
1100 | COc1cc(NC(=O)Cn2nc(N3CCCC(C)C3)c3ccccc3c2=O)cc(OC)c1 (stereo not given)
802 | O=C(CC1CCN(C(=O)c2cc3cc(Cl)ccc3[nH]2)CC1)NCc1ccco1
755 | O=C(NC1CC1)[C@@H]1C[C@H](Oc2ccccc2)CN1C(=O)C1CC=CC1
619 | O=C(CC(c1ccc(F)cc1)N1Cc2ccccc2C1=O)NCCCN1CCCC1 (stereo not given)
729 | CCCCNC(=O)C1CCN(C(=O)Nc2ccc(NC(=O)Nc3ccccc3)cc2)CC1
924 | O=C(Nc1ccc(F)cc1Cl)c1cccn1Cc1noc(C2CC2)n1
988 | COC(=O)c1ccc(-c2nc3cnccn3c2Nc2cccc(Cl)c2C)cc1
804 | COc1ccc(OCc2noc(CNC(=O)Nc3ccccc3F)n2)cc1
674 | Cc1c(-c2nnc(C(=O)NCCCN3CCCCCC3)o2)oc2ccccc12
790 | O=C(NCc1ccc(F)cc1Cl)C1CCN(c2ncnc3c2oc2ccccc23)CC1
971 | CS(=O)(=O)N1CCCc2ccc(NC(=O)Nc3ccc(Cl)c(Cl)c3)cc21
1140 | O=C(Cn1cccc1-c1nc(-c2ccc(F)cc2)no1)N1CCc2ccccc21
601 | O=C(Nc1ccc2nc(N3CCC(N4CCCCC4)CC3)cc(C(=O)O)c2c1)c1cccc(Cl)c1
1090 | COc1ccccc1-c1nc(-c2ccc3c(c2)oc(=O)n3C(C)C)no1
603 | CCN1c2ccc(C)cc2C(=O)NC12CCN(C(=O)c1cccc(Cl)c1)CC2
573 | O=C(NCc1ccc2c(c1)OCO2)C1CCCN(c2nnc3ccccn23)C1 (stereo not given)
922 | O=C(NCCc1csc(-c2ccccc2)n1)C1CCN(S(=O)(=O)c2cccc(F)c2)CC1
872 | CCC1Oc2ccc(S(=O)(=O)N3CCC(C(=O)N(C)c4cccc(C)c4)CC3)cc2NC1=O (stereo not given)
964 | Cc1cc(C(=O)NCc2ccc(C)o2)c2c(C)nn(-c3ccccc3)c2n1
722 | Cc1ccn2cc(C(=O)N3CCN(c4ccccc4Cl)CC3)nc2c1
1250 | Cc1ccc(C(=O)NC2(c3nc(-c4ccccc4)no3)CCCCC2)cc1C
683 | O=C1NCCOCCN(C(=O)COc2ccccc2)[C@H]2CCC[C@@H]12
583 | Cc1cnc(C2CCC2)n1CC1CCCN(Cc2cn(C)c3ccccc23)C1 (stereo not given)

RP-LC retention time [s] | SMILES
626 | Cc1cc(C)c2[nH]c3c(c(=O)c2c1)CN(CC(=O)NCc1ccccc1F)CC3
645 | Cn1ncc2c3ccccc3n(CCCC(=O)NCCN3CCCCCC3)c2c1=O
595 | O=C(NC1CCCC1)c1nc(C(=O)N2CCN(c3ccccn3)CC2)cs1
712 | O=C(Cn1c(=O)c(CCC(=O)NC2CC2)nc2ccccc21)Nc1ccccc1Br
906 | CC(C)c1ccccc1NC(=O)CN1CCN(c2ccc(Cl)cc2)C1=O
1010 | O=C(Nc1cncc(-c2nc3ccccc3o2)c1)c1cccc(Cl)c1
737 | Cn1nc(C(=O)N2CCCC2)c2c1CCN(C(=O)Nc1ccccc1Br)C2
821 | CCc1nc(OCC(=O)Nc2cc(OC)ccc2OC)c2ccccc2n1
1010 | Cc1ccc(C)c(N2CCN(C(=O)C3CCCN(C(=O)c4[nH]c(C)cc4C)C3)CC2)c1 (stereo not given)
760 | Cc1cc(C2CCCN2C(=O)CCc2ccccc2)no1 (stereo not given)
712 | O=C(c1ccc(F)cc1)N1CCC(n2c(-c3ccoc3)nc3cccnc32)C1 (stereo not given)
820 | Cc1cccc(CN2CCCn3nc(C(=O)NCCc4cccs4)cc3C2=O)c1
715 | Nc1c(C(=O)NCc2ccccc2Cl)nsc1C(=O)N1CCN(c2ccccn2)CC1
615 | COc1cccc(OC)c1OCC(O)CN1CCN(c2cc(Cl)ccc2C)CC1 (stereo not given)
768 | Cc1ccc(Sc2nccnc2N2CCCC(C(=O)N3CCN(c4ccccn4)CC3)C2)cc1 (stereo not given)
854 | Cn1c(=O)sc2cc(S(=O)(=O)N3CCC(C(=O)Nc4ccc(F)cc4)CC3)ccc21
1080 | O=C(Nc1ccccc1)C1CCN(S(=O)(=O)c2cc(-c3noc(C4CCC4)n3)cs2)CC1
700 | Cc1cc2c(N3CCCC(C(=O)NCc4ccc(F)cc4F)C3)nccc2s1 (stereo not given)
1220 | COc1ccc(Cl)cc1NC(=O)c1sc(-c2cn(C)c3ncccc23)nc1C
800 | CCC(C)OC(=O)C1=C(C)NC(=O)NC1c1ccccc1F (stereo not given)
1100 | CCc1ccc(NC(=O)Cn2cnc3c(sc4nc(-c5ccccc5)ccc43)c2=O)cc1
983 | COc1ccc(CNC(=O)C2CCN(c3nccnc3Sc3ccccc3)CC2)c(OC)c1
729 | CN1C(=O)Cc2ccccc2C1C(=O)NCc1cccc(F)c1 (stereo not given)
570 | Cn1c(=O)c(N2CCN(C(=O)c3cc(F)ccc3Cl)CC2)nc2ccncc21
